Experiments:
Experiment in all cases: relative viability (nuclei count vs DMSO), 5 days (fraction); higher = more cells survive
[1] = compound: C1CC(C1)(C(=O)O)C(=O)O.[NH2-].[NH2-].[Pt+2] [Carboplatin] + C[C@]1(O)C[C@@H](c2nc(-c3ccc4ccc(-c5ccccc5)nc4c3)c3c(N)nccn32)C1 [Linsitinib] (partner 1 µM)
Summary of the method: (§1)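 Lung cancer cell lines in 1536-well plates got either a single drug or a fixed anchor-drug dose together with five library-drug doses (not always all listed) in √10 steps, by pin tool, on the day after seeding. Nuclei were counted after 5 days, and relative viability is the treated-to-vehicle ratio of nuclei counts. Values are medians of duplicate plates.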

[2] = compound: CC[C@H](C)N1C=C(C2=C(C=C(C=C21)C3=CN=C(C=C3)N4CCNCC4)C(=O)NCC5=C(C=C(NC5=O)C)C)C [GSK126] + Nc1ncn([C@H]2C[C@H](O)[C@@H](CO)O2)c(=O)n1 [Decitabine] (partner 2 µM)
Summary of the method: as §1

[3] = compound: CC[C@H](C)N1C=C(C2=C(C=C(C=C21)C3=CN=C(C=C3)N4CCNCC4)C(=O)NCC5=C(C=C(NC5=O)C)C)C [GSK126] + COc1cc2c(Oc3ccc(NC(=O)C4(C(=O)Nc5ccc(F)cc5)CC4)cc3F)ccnc2cc1OCCCN1CCOCC1 [Foretinib] (partner 0.25 µM)
Summary of the method: as §1

[4] = compound: NS(=O)(=O)OC[C@@H]1C[C@@H](n2ccc3c(N[C@H]4CCc5ccccc54)ncnc32)C[C@@H]1O [MLN4924] + Cc1nc(NC(=O)N2CCC[C@H]2C(N)=O)sc1-c1ccnc(C(C)(C)C(F)(F)F)c1 [Alpelisib] (partner 2 µM)
Summary of the method: as §1

Q: What does the source list for EKVX?
A: relative viability ([1]; first compound 0.08 µM): 1.13; relative viability ([1]; first compound 0.253 µM): 1.07; relative viability ([1]; first compound 0.8 µM): 0.849; relative viability ([1]; first compound 2.53 µM): 0.847; relative viability ([1]; first compound 8 µM): 0.893; relative viability ([2]; first compound 0.08 µM): 0.343; relative viability ([2]; first compound 0.253 µM): 0.383; relative viability ([2]; first compound 0.8 µM): 0.39; relative viability ([2]; first compound 2.53 µM): 0.351; relative viability ([2]; first compound 8 µM): 0.301; relative viability ([3]; first compound 0.08 µM): 0.755; relative viability ([3]; first compound 0.253 µM): 0.881; relative viability ([3]; first compound 0.8 µM): 0.782; relative viability ([3]; first compound 2.53 µM): 0.876; relative viability ([3]; first compound 8 µM): 0.903; relative viability ([4]; first compound 0.04 µM): 0.926; relative viability ([4]; first compound 0.1265 µM): 0.748; relative viability ([4]; first compound 0.4 µM): 0.519; relative viability ([4]; first compound 1.265 µM): 0.164; relative viability ([4]; first compound 4 µM): 0.144

Q: Which results are given for NCI-H2405?
A: relative viability ([1]; first compound 0.08 µM): 0.957; relative viability ([1]; first compound 0.253 µM): 0.871; relative viability ([1]; first compound 0.8 µM): 0.882; relative viability ([1]; first compound 2.53 µM): 0.833; relative viability ([1]; first compound 8 µM): 0.842; relative viability ([2]; first compound 0.08 µM): 0.757; relative viability ([2]; first compound 0.253 µM): 0.66; relative viability ([2]; first compound 0.8 µM): 0.71; relative viability ([2]; first compound 2.53 µM): 0.747; relative viability ([2]; first compound 8 µM): 0.729; relative viability ([3]; first compound 0.08 µM): 1.03; relative viability ([3]; first compound 0.253 µM): 1; relative viability ([3]; first compound 0.8 µM): 1.02; relative viability ([3]; first compound 2.53 µM): 1.06; relative viability ([3]; first compound 8 µM): 1.02; relative viability ([4]; first compound 0.04 µM): 1.02; relative viability ([4]; first compound 0.1265 µM): 0.933; relative viability ([4]; first compound 0.4 µM): 0.517; relative viability ([4]; first compound 1.265 µM): 0.196; relative viability ([4]; first compound 4 µM): 0.215

Q: Which results are given for ABC-1?
A: relative viability ([1]; first compound 0.08 µM): 0.633; relative viability ([1]; first compound 0.253 µM): 0.939; relative viability ([1]; first compound 0.8 µM): 0.779; relative viability ([1]; first compound 2.53 µM): 0.864; relative viability ([1]; first compound 8 µM): 0.703; relative viability ([2]; first compound 0.08 µM): 1.14; relative viability ([2]; first compound 0.253 µM): 0.907; relative viability ([2]; first compound 0.8 µM): 0.885; relative viability ([2]; first compound 2.53 µM): 1; relative viability ([2]; first compound 8 µM): 1; relative viability ([3]; first compound 0.08 µM): 1.31; relative viability ([3]; first compound 0.253 µM): 1.15; relative viability ([3]; first compound 0.8 µM): 0.955; relative viability ([3]; first compound 2.53 µM): 1.14; relative viability ([3]; first compound 8 µM): 0.959; relative viability ([4]; first compound 0.04 µM): 1.18; relative viability ([4]; first compound 0.1265 µM): 0.95; relative viability ([4]; first compound 0.4 µM): 0.352; relative viability ([4]; first compound 1.265 µM): 0.264; relative viability ([4]; first compound 4 µM): 0.262

Q: Which results are given for 201T?
A: relative viability ([1]; first compound 0.08 µM): 1.06; relative viability ([1]; first compound 0.253 µM): 1.04; relative viability ([1]; first compound 0.8 µM): 0.976; relative viability ([1]; first compound 2.53 µM): 1; relative viability ([1]; first compound 8 µM): 0.962; relative viability ([2]; first compound 0.08 µM): 0.865; relative viability ([2]; first compound 0.253 µM): 0.899; relative viability ([2]; first compound 0.8 µM): 0.916; relative viability ([2]; first compound 2.53 µM): 0.86; relative viability ([2]; first compound 8 µM): 0.946; relative viability ([3]; first compound 0.08 µM): 1.17; relative viability ([3]; first compound 0.253 µM): 1.1; relative viability ([3]; first compound 0.8 µM): 1.11; relative viability ([3]; first compound 2.53 µM): 1.37; relative viability ([3]; first compound 8 µM): 1.33; relative viability ([4]; first compound 0.04 µM): 1.24; relative viability ([4]; first compound 0.1265 µM): 1.11; relative viability ([4]; first compound 0.4 µM): 1.17; relative viability ([4]; first compound 1.265 µM): 0.344; relative viability ([4]; first compound 4 µM): 0.392

— the supplement of paper PMC10307832
